How the values were obtained:
[1] = tested on: BT483 breast cancer xenografts; test: In vivo binding (homing) of test phages to breast cancer xenografts, phage recovery from tissues; parameters: species or system SCID mice; settings: heart, lung; for recovery rates of phage from tumor tissues compared with normal organs: 10^9 pfu i.v., tumor vs brain, FIG. 1
Procedure: SCID mice were injected subcutaneously (s.c.) in the dorsolateral flank with 1×10^7 BT483 cells to induce breast cancer xenografts. The mice bearing xenograft tumors at a size of around 300 mm^3 were administered intravenously (i.v.) with one of the five test phages mentioned in Example 1 above (10^9 pfu) or a control phage. After perfusion, xenograft tumors and organs (i.e., brain, heart, and lung) were removed from each mouse and homogenized. The phages bound to each tissue sample were eluted, recovered using ER2738 bacterial cells as the host, and titered on IPTG/X-Gal agar plates, following the methods described in Lee et al., Cancer Res. 67:10958-10965 (2007) and Lo et al., Mol. Cancer. Ther 7:579-589 (2008).

[2] = tested on: cancer cells in the tissue samples (PC90 binding); test: Peptide competition assay on cancer tissue samples; parameters: species or system human; settings: peptide 100 ng/ml with PC90 10^9 pfu
Procedure: (§1) Fresh breast cancer tissue samples were obtained from twenty patients having mammary infiltrating ducal carcinoma. Each of the tissue samples was sliced to 4 μm and fixed in 1% paraformaldehyde. The sliced tissue samples were then incubated with PC90 or a control phage. After being washed by PBS containing […] (PBST0.1), the samples were incubated with an anti-M13 mouse mAb (Amersham Biosciences, Piscataway, N.J., USA) for 1 hour at room temperature, washed again with PBST0.1, and the immunoreactivity of each sample was determined using a biotin-free super sensitive polymer-HRP detection system (Biogenex, San Ramon, Calif., USA), following the procedures described in Lee et al. (2004) and Lo et al. The slides, to which the tissue samples were attached, were counterstained with hematoxylin, mounted with Aquatex (Merck, Dannstadt, Germany), and examined by light microscopy. The percentage of the positively stained cells was determined following a method described in Hall et al., J. Pathol. 172:1-4 (1994).
The cancer targeting activity of PC90 was confirmed by a peptide competition assay, in which the cancer tissue samples were incubated with (1) the synthetic peptide (100 ng/ml) SMDPFLFQLLQL (SEQ ID NO:5) (SP90) and PC90 (10^9 pfu) or (2) the control peptide (100 ng/ml) RLLDTNRPLLPY (SEQ ID NO:6; see Lee et al., Cancer Res. 64:8002-8008, 2004) and PC90. […]

[3] = tested on: breast tumor xenografts (PC90 binding); test: In vivo competition: peptide co-injected with PC90, immunostaining of tumor tissues; parameters: species or system mice; settings: 100 μg peptide co-injected with PC90
Procedure: SP90 was co-administered to test its ability of blocking PC90 from binding to the tumor tissues. Briefly, 100 μg SP90 or the control peptides described above were co-injected with PC90 to mice bearing breast tumor xenografts. The normal organs and tumor tissues were removed and fixed in Bouin's solution (Sigma, Mo., USA). After fixation, the samples were embedded in paraffin blocks, sliced to sections, and the sections were deparaffinized, rehydrated, and subjected to immunostaining using the mouse anti-M13 mAb described in Example 1 above.

[4] = tested on: breast cancer tissue samples (mammary infiltrating ducal carcinoma); test: Immunostaining of patient breast cancer biopsy samples with phage; parameters: species or system human; settings: biopsy samples from twenty patients; anti-M13 immunostaining
Procedure: as §1

## EATNSHGSRTMG (SEQ ID NO: 2) [PC65]
[1]
  recovery rates of phage from tumor tissues compared with normal organs: much higher

## QLEFYTQLAHLI (SEQ ID NO: 4) [PC82]
[1]
  recovery rates of phage from tumor tissues compared with normal organs: much higher

## QNIYAGVPMISF (SEQ ID NO: 1) [PC34]
[1]
  recovery rates of phage from tumor tissues compared with normal organs: much higher

## RLLDTNRPLLPY (SEQ ID NO:6) [control peptide, synthetic control peptide, see Lee et al., Cancer Res. 64:8002-8008, 2004, reference compound]
[2]
  competition against PC90 for binding to cancer cells in tissue samples: not
[3]
  inhibition of PC90 binding to the tumor tissues (words): did not exhibit any inhibitory activity

## SMDPFLFQLLQL (SEQ ID NO:5) [SP90, synthetic peptide …]
[2]
  competition against PC90 for binding to cancer cells in tissue samples: competed against PC90 for binding to the cancer cells
[3]
  inhibition of PC90 binding to the tumor tissues: 97%
  inhibition of PC90 binding to the tumor tissues (words): significantly inhibited

## SMDPFLFQLLQL (SEQ ID NO: 5) [PC90]
[4]
  patients determined as carrying breast cancer cells: 18 out of the 20
[1]
  recovery rates of phage from tumor tissues compared with normal organs: much higher
[1]; i.v., tumor xenografts vs brain
  targeting of tumor xenografts and normal organs: bound to cancer cells in the tumor xenografts but not to normal organs

## TVSWSTTGRIPL (SEQ ID NO: 3) [PC73]
[1]
  recovery rates of phage from tumor tissues compared with normal organs: much higher
